Results reported in patent publication US20210002725A1, “METHODS FOR THE DIAGNOSIS OF METABOLIC DISORDERS USING EPIMETABOLIC SHIFTERS, MULTIDIMENSIONAL INTRACELLULAR MOLECULES, OR ENVIRONMENTAL INFLUENCES” (Berg LLC, priority 2009, published 2021).
“And” between values parts separate entries of the source, which are not always exact repeats. Equal values may be shown once. “Also recorded” adds a separate entry of the source.

Assays:
Hif1 alpha = assay: Western blot of Hif1 alpha levels in cells treated with Coenzyme Q10; assay type: cell-based, human; conditions: whole cell lysates of normal cells
Experimental: The Actin blots were stripped by incubating for 30 minutes with methanol, followed by two 10 minute washes with TBS-T, then 30 minutes of incubation with Stripping buffer at 50 deg C., and followed by two washes with 100 ml or more of TBS-T for 30′ each. The blots were scanned in laser scanner to check for complete stripping. The blots were activated with methanol for 5 seconds, washed with water for 5 minutes, and TBST for 15 minutes. The blots were blocked for 1 hour with 5% blocking reagent in TBS-T at room temperature and then washed 3 times with TBS-T (1×-15′; 2×5′ each) and probed with the primary antibody for Hif 1 alpha, Caspase 3 or PDHB in 5% BSA (at 1:200 by incubation overnight at 4 deg C. with gentle shaking. The primary antibody for Hif 1 alpha (Abcam ab2185; antirabbit) was at 1:500 dilution in 5% BSA. The primary antibody for Caspase 3 (Santacruz sc7272; antirabbit) was at 1:200 dilution in 5% BSA. The primary antibody for Pyruvate Dehydrogenase beta (PDHB) (Novus Biologicals H00005162-M03; antimouse) was at 1:500 dilution in 5% BSA. After incubation with primary antibodies, the membranes were washed 3 times with TBS-T (1×-15′; 2×5′ each) and probed with the secondary antibody (PDHB antimouse; Hif 1a and Caspase 3 antirabbit; 1:10,000 dilution) for 1 h at room temperature. […]

SCC cells = assay: Real-time PCR Apoptosis Array; assay type: cell-based; conditions: 100 μM Q10
From the text: The control cells were untreated cells.
RNA was quantified by measuring Optical Density at 260 nm.

[1] = tested on: HepG2 (liver cancer) cells; assay: Real-time PCR Apoptosis Array; assay type: cell-based
HK-2 cells [2] = assay: Mitochondria PCR arrays in cell model for diabetes; assay type: cell-based, human; conditions: HK-2(H) 22 mM glucose
Experimental: (§1) The HK-2 and HASMC cells are normally maintained in culture at 5.5 mM glucose, which is a concentration that corresponds to a range considered normal in human blood. However, in order to simulate a diabetic environment, both cell lines were subsequently maintained at 22 mM glucose, which corresponds to the range observed in human blood associated with chronic hyperglycemia. The cells were subsequently allowed to propagate over 3 passages so that the intracellular regulation processes were functionally adapted to mimic a diabetic state. The choice of cell line was based on the physiologic influence of diabetes on renal dysfunction and progression to end-stage renal disease (ESRD) in addition to the progressive pathophysiology of a compromised cardiovascular function.
(§2) Differential expression of mitochondrial genes in diabetes was assayed using the mitochondria arrays (Cat#PAHS 087E, SABisociences Frederick Md.).

HASMC cells = assay: Mitochondria PCR arrays in cell model for diabetes; assay type: cell-based, human; conditions: HASMC-(H) 22 mM glucose
Experimental: as §1, §2

HK-2 cells [3] = assay: Diabetes PCR array in cell model for diabetes; assay type: cell-based, human
Experimental: as §1
The Diabetes PCR array (SABiosciences) offers a screen for 84 genes simultaneously.
A stringent analysis of the Real time PCR data of the HK-2 samples on the Diabetes Arrays (Cat #PAHS-023E, SABiosciences Frederick Md.) was made to exclude all results where gene regulation was not at least a two-fold regulation over HK-2 normal untreated cells with a p value of less than 0.05.

key proteins = assay: Summary of key proteins modulated by Q10

## COC1=C(OC)C(=O)C(C/C=C(\C)CC/C=C(\C)CC/C=C(\C)CC/C=C(\C)CC/C=C(\C)CC/C=C(\C)CC/C=C(\C)CC/C=C(\C)CC/C=C(\C)CCC=C(C)C)=C(C)C1=O [Q10, Coenzyme Q10]
Hif1 alpha
  Hif1a lower band: showed a decrease
SCC cells
  Regulation (mRNA) at 6 hours: Down regulated at 6
SCC cells; gene BAX
  Regulation (mRNA) at 24 hours: Up regulated at 24 hours.
SCC cells; gene BCL2L1
  Regulation (mRNA) at 24 hours: hours and then up
SCC cells; gene BNIP3
  Regulation (mRNA) at 24 hours: Down regulated at 24
[1]; 100 μM
  genes regulated in the Apoptosis Arrays: BAG1 and CASP9 and TNFRSF1A
[1]; 100 uM Q10, 16 hours
  BAG1 downregulation over control: approximately 6 fold
  CASP9 upregulation over control: approximately 61 fold
  TNFRSF1A downregulation over control: ~4 fold
[1]; 100 uM Q10, 48 hours
  BAG1 upregulation over control: ~1 fold
  CASP9 upregulation over control: approximately 55 fold
  TNFRSF1A upregulation over control: ~1 fold
HK-2 cells [2]; 50 μM Coenzyme Q10
  GRPEL1 gene regulation (mitochondria array): −2.6512
  SLC25A3 gene regulation (mitochondria array): −8.2059
  TOMM40 gene regulation (mitochondria array): −1.1567
  TSPO gene regulation (mitochondria array): −6.7583
HK-2 cells [2]; 100 μM Coenzyme Q10
  GRPEL1 gene regulation (mitochondria array): −1.933
  SLC25A3 gene regulation (mitochondria array): −1.6984
  TOMM40 gene regulation (mitochondria array): −1.9509
  TSPO gene regulation (mitochondria array): −2.1104
HASMC cells; 50 uM Coenzyme Q10
  BCL2L1 gene regulation (mitochondria array): −2.7863
  MFN1 gene regulation (mitochondria array): −1.2585
  PMAIP1 gene regulation (mitochondria array): −6.8132
  SLC25A1 gene regulation (mitochondria array): −1.834
  SLC25A13 gene regulation (mitochondria array): −1.5
  SLC25A19 gene regulation (mitochondria array): −1.4257
  SLC25A22 gene regulation (mitochondria array): −1.9839
  TIMM44 gene regulation (mitochondria array): −2.3214
  TOMM40 gene regulation (mitochondria array): −2.0922
  TSPO gene regulation (mitochondria array): −2.0586
HASMC cells; 100 μM Coenzyme Q10
  BCL2L1 gene regulation (mitochondria array): −2.3001
  MFN1 gene regulation (mitochondria array): −2.2632
  PMAIP1 gene regulation (mitochondria array): −4.352
  SLC25A1 gene regulation (mitochondria array): −3.0001
  SLC25A13 gene regulation (mitochondria array): −1.5245
  SLC25A19 gene regulation (mitochondria array): −2.1214
  SLC25A22 gene regulation (mitochondria array): −10.3747
  TIMM44 gene regulation (mitochondria array): −1.9931
  TOMM40 gene regulation (mitochondria array): −2.2684
  TSPO gene regulation (mitochondria array): −2.3647
HK-2 cells [3]; HK2(H) cells at 22 mM glucose, particularly 100 μM Coenzyme Q10
  CEACAM1 RNA transcript: highly upregulated
HK-2 cells [3]; diabetic HK-2 cells
  insulin receptor (INSR) expression: increase in expression
Key proteins
  Key proteins modulated: Apoptotic response: Bcl-xl, Bcl-xS, BNIP-2, Bcl-2, Birc6,; also recorded: Bcl-2-L11 (Bim), XIAP, BRAF, Bax,; also recorded: c-Jun, Bmf, PUMA, cMyc
  Key proteins modulated: Biosynthetic pathway: COQ1, COQ3, COQ6, prenyltransferase, and 4-hydroxybenzoate
  Key proteins modulated: Oxidative phosphorylation metabolism: Cytochrome c, complex I, complex II,; also recorded: complex III, complex IV,
  Key proteins modulated: Pentose Phosphate Pathway: transaldolase 1
  Key proteins modulated: Transcription factors: HNF4alpha
